Measured values from patent publication US4684664A, “Derivatives of β-(4-isocyano-1,2,3,4-diepoxycyclopentyl) acrylic acid” (Kureha Kagaku Kogyo Kabushiki Kaisha, priority 1984, dated 1987).
In brackets after ≈: the same amount, converted by molar mass.

How the values were obtained:
[1] = tested on: Streptococcus pyogenes Cook; assay: Antibacterial activity, agar-dilution MIC, organism No. 4; format: cell-based; conditions: Streptococcus pyogenes; Organism No. 4, bouillon-agar; read-out: Minimum Inhibitory Concentration
How it was run: (§1)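 For each organism the specimen was serially diluted into bouillon agar, and inhibition was scored to give the MIC in μg/ml of culture medium.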

[2] = tested on: Salmonella typhimurium IID 971; assay: Antibacterial activity, agar-dilution MIC, organism No. 8; format: cell-based; conditions: Salmonella enterica; Organism No. 8, bouillon-agar; read-out: Minimum Inhibitory Concentration
How it was run: as §1

[3] = tested on: Staphylococcus aureus MS 353; assay: Antibacterial activity, agar-dilution MIC, organism No. 3; format: cell-based; conditions: Staphylococcus aureus, MS353; Organism No. 3, bouillon-agar; read-out: Minimum Inhibitory Concentration
How it was run: as §1

[4] = tested on: Pseudomonas aeruginosa PAO 1; assay: Antibacterial activity, agar-dilution MIC, organism No. 17; format: cell-based; conditions: Pseudomonas aeruginosa, PAO1; Organism No. 17, bouillon-agar; read-out: Minimum Inhibitory Concentration
How it was run: as §1

Enterobacter cloacae 963 = assay: Antibacterial activity, agar-dilution MIC, organism No. 24; format: cell-based; conditions: Enterobacter cloacae, 963; Organism No. 24, bouillon-agar; read-out: Minimum Inhibitory Concentration
How it was run: as §1

[5] = tested on: Mycoplasma pneumoniae IID817; assay: Antimycoplasmal activity, MIC by phenol red colour change, organism No. 28; format: cell-based; conditions: Mycoplasma, IID817; Organism No. 28, PPLO broth + 1% glucose, 37° C.; read-out: Minimum Inhibitory Concentration (MIC)
Method: Mycoplasma pneumoniae IID817 was used as the test microorganism in a culture medium prepared by adding 1% of glucose to "PPLO broth (manufactured by Difco Co.) liquid culture medium" at 37° C. with phenol red as an indicator, thereby culturing the test microorganism.

Proteus vulgaris OX-19 = assay: Antibacterial activity, agar-dilution MIC, organism No. 20; format: cell-based; conditions: Proteus vulgaris, OX19; Organism No. 20, bouillon-agar; read-out: Minimum Inhibitory Concentration
How it was run: as §1

[6] = tested on: Escherichia coli NIHJ-JC-2; assay: Antibacterial activity, agar-dilution MIC, organism No. 5; format: cell-based; conditions: Escherichia coli, NIHJJC2; Organism No. 5, bouillon-agar; read-out: Minimum Inhibitory Concentration
How it was run: as §1

[7] = tested on: Serratia marcescens IAM 1184; assay: Antibacterial activity, agar-dilution MIC, organism No. 13; format: cell-based; conditions: Serratia marcescens, IAM1184; Organism No. 13, bouillon-agar; read-out: Minimum Inhibitory Concentration
How it was run: as §1

[8] = Stability in a non-solvent state; format: physicochemical
[9] = tested on: Proteus morganii IFO 3848; assay: Antibacterial activity, agar-dilution MIC, organism No. 18; format: cell-based; conditions: Morganella morganii, IFO3848; Organism No. 18, bouillon-agar; read-out: Minimum Inhibitory Concentration
How it was run: as §1

[10] = tested on: Aspergillus niger IFO 6342; assay: Antifungal activity, agar-dilution MIC, organism No. 30; format: cell-based; conditions: Aspergillus niger, IFO6342; Organism No. 30, bouillon-agar; read-out: Minimum Inhibitory Concentration
How it was run: as §1

[11] = tested on: Bacillus subtilis ATCC 6633; assay: Antibacterial activity, agar-dilution MIC, organism No. 14; format: cell-based; conditions: Bacillus subtilis, ATCC6633; Organism No. 14, bouillon-agar; read-out: Minimum Inhibitory Concentration
How it was run: as §1

[12] = tested on: Escherichia coli K12 C600 IAM 1264; assay: Antibacterial activity, agar-dilution MIC, organism No. 6; format: cell-based; conditions: Escherichia coli, IAM1264; Organism No. 6, bouillon-agar; read-out: Minimum Inhibitory Concentration
How it was run: as §1

[13] = tested on: Micrococcus luteus ATCC 9341; assay: Antibacterial activity, agar-dilution MIC, organism No. 25; format: cell-based; conditions: Micrococcus luteus, ATCC9341; Organism No. 25, bouillon-agar; read-out: Minimum Inhibitory Concentration
How it was run: as §1

[14] = tested on: Staphylococcus aureus Terajima; assay: Antibacterial activity, agar-dilution MIC, organism No. 2; format: cell-based; conditions: Staphylococcus aureus; Organism No. 2, bouillon-agar; read-out: Minimum Inhibitory Concentration
How it was run: as §1

[15] = tested on: Pseudomonas aeruginosa NCTC 10490; assay: Antibacterial activity, agar-dilution MIC, organism No. 16; format: cell-based; conditions: Pseudomonas aeruginosa, NCTC10490; Organism No. 16, bouillon-agar; read-out: Minimum Inhibitory Concentration
How it was run: as §1

Salmonella typhi 901 = assay: Antibacterial activity, agar-dilution MIC, organism No. 9; format: cell-based; conditions: Salmonella enterica, TYPHI, read-out: Minimum Inhibitory Concentration
How it was run: as §1

[16] = tested on: Proteus mirabilis IFO 3849; assay: Antibacterial activity, agar-dilution MIC, organism No. 19; format: cell-based; conditions: Proteus mirabilis, IFO3849; Organism No. 19, bouillon-agar; read-out: Minimum Inhibitory Concentration
How it was run: as §1

[17] = tested on: Staphylococcus aureus FDA 209PJc-1; assay: Antibacterial activity, agar-dilution MIC, organism No. 1; format: cell-based; conditions: Staphylococcus aureus, FDA209PJC1; Organism No. 1, bouillon-agar; read-out: Minimum Inhibitory Concentration
How it was run: as §1

[18] = tested on: Proteus rettgeri IFO 3850; assay: Antibacterial activity, agar-dilution MIC, organism No. 22; format: cell-based; conditions: Providencia rettgeri, IFO3850; Organism No. 22, bouillon-agar; read-out: Minimum Inhibitory Concentration
How it was run: as §1

[19] = tested on: Salmonella enteritidis G 14; assay: Antibacterial activity, agar-dilution MIC, organism No. 12; format: cell-based; conditions: Salmonella enterica, ENTERITIDIS; Organism No. 12, bouillon-agar; read-out: Minimum Inhibitory Concentration
How it was run: as §1

[20] = tested on: Klebsiella pneumoniae PCI-602; assay: Antibacterial activity, agar-dilution MIC, organism No. 7; format: cell-based; conditions: Klebsiella pneumoniae, PCI602; Organism No. 7, bouillon-agar; read-out: Minimum Inhibitory Concentration
How it was run: as §1

[21] = tested on: Streptococcus faecium IFO 3826; assay: Antibacterial activity, agar-dilution MIC, organism No. 27; format: cell-based; conditions: Enterococcus faecium, IFO3826; Organism No. 27, bouillon-agar; read-out: Minimum Inhibitory Concentration
How it was run: as §1

[22] = tested on: Salmonella paratyphi-A 1015; assay: Antibacterial activity, agar-dilution MIC, organism No. 10; format: cell-based; conditions: Salmonella enterica, PARATYPHI, read-out: Minimum Inhibitory Concentration
How it was run: as §1

[23] = tested on: Salmonella shottmuelleri 8006; assay: Antibacterial activity, agar-dilution MIC, organism No. 11; format: cell-based; conditions: Salmonella, 8006; Organism No. 11, bouillon-agar; read-out: Minimum Inhibitory Concentration
How it was run: as §1

[24] = tested on: Pseudomonas aeruginosa IFO 3445; assay: Antibacterial activity, agar-dilution MIC, organism No. 15; format: cell-based; conditions: Pseudomonas aeruginosa, IFO3445; Organism No. 15, bouillon-agar; read-out: Minimum Inhibitory Concentration
How it was run: as §1

Proteus vulgaris HX-19 = assay: Antibacterial activity, agar-dilution MIC, organism No. 21; format: cell-based; conditions: Proteus vulgaris, HX19; Organism No. 21, bouillon-agar; read-out: Minimum Inhibitory Concentration
How it was run: as §1

[25] = tested on: Enterobacter aerogenes ATCC 13048; assay: Antibacterial activity, agar-dilution MIC, organism No. 23; format: cell-based; conditions: Klebsiella aerogenes, ATCC13048; Organism No. 23, bouillon-agar; read-out: Minimum Inhibitory Concentration
How it was run: as §1

[26] = tested on: Candida albicans IAM 4905; assay: Antifungal activity, agar-dilution MIC, organism No. 29; format: cell-based; conditions: Candida albicans, IAM4905; Organism No. 29, bouillon-agar; read-out: Minimum Inhibitory Concentration
How it was run: as §1

[27] = tested on: Streptococcus pyogenes IFO 3340; assay: Antibacterial activity, agar-dilution MIC, organism No. 26; format: cell-based; conditions: Streptococcus pyogenes, IFO3340; Organism No. 26, bouillon-agar; read-out: Minimum Inhibitory Concentration
How it was run: as §1

Structure (SMILES) | MIC [1] [µg/mL] | MIC [2] [µg/mL] | MIC [3] [µg/mL] | MIC [4] [µg/mL] | MIC (Enterobacter cloacae 963) [µg/mL] | MIC [5] [µg/mL] | MIC (Proteus vulgaris OX-19) [µg/mL] | MIC [6] [µg/mL] | MIC [7] [µg/mL] | stability (in words) [8] | MIC [9] [µg/mL] | MIC [10] [µg/mL] | MIC [11] [µg/mL] | MIC [12] [µg/mL] | MIC [13] [µg/mL] | MIC [14] [µg/mL] | MIC [15] [µg/mL] | MIC (Salmonella typhi 901) [µg/mL] | MIC [16] [µg/mL] | MIC [17] [µg/mL] | other results
[C-]#[N+]C12CC3(/C=C/C(=O)OCc4cc([N+](=O)[O-])ccc4O)OC3C1O2 (stereo not drawn) [Compound No. 17] | > 200 | > 200 | > 200 | > 200 | > 200 | 100 | > 200 | > 200 | > 200 | tendency thereof of decomposition in a non-solvent state | > 200 | > 100 | > 200 | > 200 | 200 (≈ 581 µM) | > 200 | > 200 | 200 (≈ 581 µM) | > 200 | > 200 | MIC [18]: > 200 µg/mL; MIC [19]: > 200 µg/mL; MIC [20]: > 200 µg/mL; MIC [21]: > 200 µg/mL; MIC [22]: > 200 µg/mL; MIC [23]: > 200 µg/mL; MIC [24]: > 200 µg/mL; MIC (Proteus vulgaris HX-19): > 200 µg/mL; MIC [25]: > 200 µg/mL; MIC [26]: > 100 µg/mL; MIC [27]: > 200 µg/mL
[C-]#[N+]C12CC3(/C=C/C(=O)OCc4ccccc4)OC3C1O2 (stereo not drawn) [Compound No. 10, benzyl β-substituted acrylate] | 3.13 (≈ 11 µM) | 3.13 (≈ 11 µM) | 0.39 (≈ 1.38 µM) | > 100 | 50 (≈ 177 µM) | < 0.2 | < 0.1 | 6.25 (≈ 22.1 µM) | 12.5 (≈ 44.1 µM) | decomposed and coloured when left in a non-solvent state | 0.39 (≈ 1.38 µM) | 1.56 (≈ 5.51 µM) | 0.78 (≈ 2.75 µM) | 3.13 (≈ 11 µM) | < 0.1 | 1.56 (≈ 5.51 µM) | > 100 | 0.78 (≈ 2.75 µM) | 3.13 (≈ 11 µM) | 0.39 (≈ 1.38 µM) | MIC [18]: 6.25 µg/mL (≈ 22.1 µM); MIC [19]: 3.13 µg/mL (≈ 11 µM); MIC [20]: < 0.1 µg/mL; MIC [21]: 1.56 µg/mL (≈ 5.51 µM); MIC [22]: 0.78 µg/mL (≈ 2.75 µM); MIC [23]: < 0.1 µg/mL; MIC [24]: > 100 µg/mL; MIC (Proteus vulgaris HX-19): < 0.1 µg/mL; MIC [25]: > 100 µg/mL; MIC [26]: 0.8 µg/mL (≈ 2.82 µM); MIC [27]: 3.13 µg/mL (≈ 11 µM)
[C-]#[N+]C12CC3(/C=C/C(=O)OCC)OC3C1O2 (stereo not drawn) [Compound No. 2, ethyl β-substituted acrylate] | > 200 | 25 (≈ 113 µM) | 12.5 (≈ 56.5 µM) | > 200 | > 200 | < 0.2 | 6.25 (≈ 28.3 µM) | 50 (≈ 226 µM) | > 200 | decomposing and colouring tendency in a non-solvent state | 6.25 (≈ 28.3 µM) | 12.5 (≈ 56.5 µM) | 50 (≈ 226 µM) | 25 (≈ 113 µM) | 1.56 (≈ 7.05 µM) | 12.5 (≈ 56.5 µM) | > 200 | 6.25 (≈ 28.3 µM) | 25 (≈ 113 µM) | 12.5 (≈ 56.5 µM) | MIC [18]: > 200 µg/mL; MIC [19]: 6.25 µg/mL (≈ 28.3 µM); MIC [20]: 6.25 µg/mL (≈ 28.3 µM); MIC [21]: 12.5 µg/mL (≈ 56.5 µM); MIC [22]: 6.25 µg/mL (≈ 28.3 µM); MIC [23]: 6.25 µg/mL (≈ 28.3 µM); MIC [24]: > 200 µg/mL; MIC (Proteus vulgaris HX-19): 0.2 µg/mL (≈ 0.904 µM); MIC [25]: > 200 µg/mL; MIC [26]: 3.13 µg/mL (≈ 14.1 µM); MIC [27]: 100 µg/mL (≈ 452 µM)
